This note sets out measurements from the C3SDB collision cross section collection.

Values joined by “and” are separate entries in the source; they are usually repeats but may differ in a detail not shown here. Equal values may be shown once.

The conditions of series [1]: instrument: DT, single field.
For series [2] the following is noted: instrument: TW, calibrated with phosphatidylcholines (ESI+) and phosphatidylethanolamines (ESI-).
For series [3] the following is noted: instrument: TW, calibrated with phosphatidylcholines (ESI+) and phosphatidylethanolamines (ESI-). This is another data set of the same source.
The conditions of series [4]: instrument: DT, single field, calibrated with Agilent tune mix (Agilent).

Take `CC/C=C\C/C=C\C/C=C\C/C=C\C/C=C\CCCCCC(=O)O[C@@H](CO)COC(=O)CCCCCCCCCCCC` [DG(35:5)]: the “collision cross section (N2)” value in series [1] ([M+NH4]+) was 265.29 Å² and 266.85 Å².

For `CCCCCCCCCCCCCC=CCC(=O)OC[C@H](CO[C@@H]1O[C@H](CO[C@H]2O[C@H](CO)[C@H](O)C(O)C2O)[C@H](O)C(O)C1O)OC(=O)CC=CCCCCCCCCCCCCC` (stereo not given in full) [DGDG(34:2)], the “collision cross section (N2)” value in series [2] ([M+NH4]+) was 309 Å²; in series [2] ([M+Na]+), 305.2 Å².

With `CCCCCCCCCCCCCCC=CCC(=O)O[C@H](COC(=O)CC=CCCCCCCCCCCCCCCC)CO[C@@H]1O[C@H](CO[C@H]2O[C@H](CO)[C@H](O)C(O)C2O)[C@H](O)C(O)C1O` (stereo not given in full) [DGDG(35:2)], the “collision cross section (N2)” value in series [2] (M+NH4]+) is given as 315 Å².

As for `CCCCCCCCCCCCCCCC(=O)OCC(CO[C@@H]1O[C@@H](C(=O)O)[C@H](O)[C@H](O)[C@H]1O)OC(=O)CCCCCCCCCCCCCCC` (stereo not given in full) [GlcADG(16:0/16:0)], the “collision cross section (N2)” value in series [2] ([M+NH4]+) is 286 Å²; in series [2] ([M+Na]+), 282.6 Å²; in series [2] ([M-H]-), 267.9 Å².

`CCCCCC/C=C\CCCCCCCCCC(=O)OC(COC(=O)CCCCCCCCCCCCCCC)CO[C@@H]1O[C@@H](C(=O)O)[C@H](O)[C@H](O)[C@H]1O` (stereo not given in full) [GlcADG(16:0/18:1)]: the “collision cross section (N2)” value in series [2] ([M+NH4]+) is 290.1 Å²; in series [2] ([M+Na]+) it was 288.1 Å²; in series [2] ([M-H]-) it was 272.7 Å².

Turning to `CCCCCCCCCCCCCCCC(=O)OCC(COP(=O)([O-])OCC(O)COC(=O)C(N)CCCC[NH3+])OC(=O)CCCCCCCCCCCCCCC` (stereo not given) [LysPG(16:0/16:0)], the “collision cross section (N2)” value in series [2] ([M+H]+) amounted to 297 Å²; in series [2] ([M-H]-), 291.5 Å².

Turning to `CCCCCCCCCCCCCCC(=O)OCC(COP(=O)([O-])OCC(O)COC(=O)C(N)CCCC[NH3+])OC(=O)CCCCCCCCCCCC` (stereo not given) [LysPG(28:0)], the “collision cross section (N2)” value in series [2] ([M+H]+) was found to be 284.7 Å².

As for `CCCCCCCCCCCCCCC(=O)OCC(COP(=O)([O-])OCC(O)COC(=O)C(N)CCCC[NH3+])OC(=O)CCCCCCCCCCCCCC` (stereo not given) [LysPG(30:0)], the “collision cross section (N2)” value in series [2] ([M+H]+) turned out to be 290.4 Å².

Consider `CCCCCC/C=C/CCCCCCCC(=O)OCC(COP(=O)([O-])OCC(O)COC(=O)C(N)CCCC[NH3+])OC(=O)CCCCCCCCCCCCC` (stereo not given) [LysPG(30:1)], for which, in series [2] ([M+H]+), the “collision cross section (N2)” value is given as 287 Å².

Turning to `CCCCCCCCCCCCCCCC(=O)OC(COC(=O)CCCCCCCCCCCCCC)COP(=O)([O-])OCC(O)COC(=O)C(N)CCCC[NH3+]` (stereo not given) [LysPG(31:0)], the “collision cross section (N2)” value in series [2] ([M+H]+) amounted to 293.9 Å².

For the molecule `CCCCCC/C=C/CCCCCCCC(=O)OCC(COP(=O)([O-])OCC(O)COC(=O)C(N)CCCC[NH3+])OC(=O)CCCCCCCCCCCCCCC` (stereo not given) [LysPG(32:1)], the “collision cross section (N2)” value in series [2] ([M+H]+) worked out at 293.5 Å².

On to `CCCCCC/C=C\CCCCCCCC(=O)OCC(COP(=O)([O-])OCC(O)COC(=O)C(N)CCCC[NH3+])OC(=O)CCCCCCC/C=C\CCCCCC` (stereo not given) [LysPG(32:2)], for which, in series [2] ([M+H]+), the “collision cross section (N2)” value was determined as 290.8 Å².

For the molecule `CCCCCCCCCCCCCCCCCCC(=O)OC(COC(=O)CCCCCCCCCCCCCC)COP(=O)([O-])OCC(O)COC(=O)C(N)CCCC[NH3+]` (stereo not given) [LysPG(34:0)], in series [2] ([M+H]+), the “collision cross section (N2)” value amounted to 302.5 Å².

For `CCCCCC/C=C\CCCCCCCCCC(=O)OCC(COP(=O)([O-])OCC(O)COC(=O)C(N)CCCC[NH3+])OC(=O)CCCCCCCCCCCCCCCC` (stereo not given) [LysPG(35:1)], the “collision cross section (N2)” value in series [2] ([M+H]+) came out at 303.5 Å².

On to `CCCCCCCCCCCCCCCCCCCCC(=O)O[C@H](COC(=O)CCCCCCCCCCC)COP(=O)(O)O` [PA(33:0)], for which, in series [2] ([M-H]-), the “collision cross section (N2)” value was 254.5 Å².

`CCCCCCCCCCCCCCCCCCCCCC(=O)OC[C@H](COP(=O)(O)O)OC(=O)CCCCCCCCCCC` [PA(34:0)]: the “collision cross section (N2)” value in series [2] ([M-H]-) came out at 257.6 Å².

In the case of `CCCCCCCCCCCCCCCCCCCCC(=O)O[C@H](COC(=O)CCCCCCCCCCCCC)COP(=O)(O)O` [PA(35:0)], the “collision cross section (N2)” value in series [2] ([M-H]-) is on record as 261 Å².

Regarding `CCCCCCCCCCCCCCCCC(=O)O[C@H](COC(=O)CCCCCCCCCCCCCC)COP(=O)(O)OC[C@@H](O)CO` [PG(16:0/16:0)], in series [2] ([M-H]-), the “collision cross section (N2)” value amounted to 264.5 Å².

Take `CCCCCCCCCCCCCCC(=O)O[C@H](COC(=O)CCCCCCCCCCCC)COP(=O)(O)OC[C@@H](O)CO` [PG(28:0)]: the “collision cross section (N2)” value in series [2] ([M-H]-) is 253.1 Å².

In the case of `CCCCCCC/C=C\CCCCCCCC(=O)O[C@H](COC(=O)CCCCCCCCCCCC)COP(=O)(O)OC[C@@H](O)CO` [PG(30:1)], the “collision cross section (N2)” value in series [2] ([M-H]-) amounted to 257.1 Å².

Regarding `CCCCCC/C=C\CCCCCCCC(=O)O[C@H](COC(=O)CCCCCCCCCCCCCC)COP(=O)(O)OC[C@@H](O)CO` [PG(31:1)], the “collision cross section (N2)” value in series [2] ([M-H]-) was 260.2 Å².

In the case of `CCCCCCCCCCCCCCCCCCCCC(=O)OC[C@H](COP(=O)(O)OC[C@@H](O)CO)OC(=O)CCCCCCCCCCC` [PG(33:0)], in series [2] ([M-H]-), the “collision cross section (N2)” value was 268.6 Å².

`CCCCC/C=C\CCCCCCCC(=O)OC[C@H](COP(=O)(O)OC[C@@H](O)CO)OC(=O)CCCCCCC/C=C\CCCCCCCC` [PG(33:2)]: in series [2] ([M-H]-), the “collision cross section (N2)” value came out at 264.5 Å².

On to `CCCCC/C=C\C/C=C\CCCCCCCCCCCC(=O)O[C@H](COC(=O)CCCCCCCCCCC)COP(=O)(O)OC[C@@H](O)CO` [PG(34:2)], for which the “collision cross section (N2)” value in series [2] ([M-H]-) was found to be 268.1 Å²; in series [3] ([M+Na]+), 278.2 Å²; in series [3] ([M-H]-), 267.4 Å²; in series [4] ([M+H]+), 283.3 Å²; in series [4] ([M+NH4]+) it was 284.9 Å²; in series [4] ([M-H]-), 268.7 Å².

For the molecule `CCC/C=C\C/C=C\CCCCCCCC(=O)O[C@H](CO/C=C\CCCCCCCCCCCCC)COP(=O)(O)OC[C@@H](O)CO` [PG(p31:2)], the “collision cross section (N2)” value in series [2] ([M-H]-) worked out at 256.8 Å².

Take `CCCCCC/C=C\CCCCCCCC(=O)O[C@H](CO/C=C\CCCCCCCCCCCCCCCC)COP(=O)(O)OC[C@@H](O)CO` [PG(p34:1)]: the “collision cross section (N2)” value in series [2] ([M-H]-) is 268.6 Å².

As for `CCCCC/C=C\C/C=C\CCCCCCCC(=O)O[C@H](CO/C=C\CCCCCCCCCCCCCC)COP(=O)(O)OC[C@@H](O)CO` [PG(p34:2)], the “collision cross section (N2)” value in series [2] ([M-H]-) is recorded as 266.6 Å².

Take `CCCCCCCCCCCCCCCC(=O)OC[C@H](COP(=O)(O)O[C@H]1C(O)C(O)C(O)[C@@H](O)C1O)OC(=O)CCCCCCCCCCCCCCC` (stereo not given in full) [PI(16:0/16:0)]: the results for the “collision cross section (N2)” value in series [2] ([M+Na]+) and in series [2] ([M-H]-) were 289.5 Å² and 280.9 Å², respectively.

Turning to `CCCCCCCC/C=C\CCCCCCCC(=O)OC[C@@H](COC(=O)CCCCCCCCCCCC)OC(=O)CCCCCCCCCCCC` [TG(44:1)], the “collision cross section (N2)” value in series [1] ([M+NH4]+) was 296.47 Å² and 298.81 Å² and 298.68 Å²; in series [1] ([M+Na]+) it was 295.37 Å² and 297.74 Å².

As to `CCCCCCCCCCCCCCCCCCCCCC(=O)OC[C@@H](COC(=O)CCCCCCCCCCC)OC(=O)CCCCCCCCCCC` [TG(46:0)], the “collision cross section (N2)” value in series [1] ([M+Na]+) was 302.69 Å² and 303.56 Å².

In the case of `CCCC/C=C\C/C=C\CCCCCCCC(=O)O[C@@H](COC(=O)CCCCCCCCC/C=C\C/C=C\CCCCC)COC(=O)CCCCCCCCCCC` [TG(49:4)], the “collision cross section (N2)” value in series [1] ([M+NH4]+) was found to be 307.56 Å².

As for `CCCCCCCCCCCCCCCCCCC(=O)OC[C@@H](COC(=O)CCCCCCCCCCC)OC(=O)CCCCCCCCCCCCCCCCCC` [TG(50:0)], the “collision cross section (N2)” value in series [1] ([M+Na]+) stood at 316.28 Å².
